Here are results for three compounds from PMC11413853, “Discovery of VU6007496: Challenges in the Development of an M1 Positive Allosteric Modulator Backup Candidate” (ACS Chemical Neuroscience, 2024).

Where two headings read alike, the source gives them in different places.

The target of one series is CYP2C9 (Homo sapiens, UniProt P11712). Put plainly: CYP inhibition, 2C9. Format: in vitro ADME.
The nature of series [1]: Rat brain homogenate binding. The format is in vitro ADME. The note with it: brain homogenate (1:3 brain:DPBS, w/w), pH 7.4, read-out: fu,brain (r). On the procedure: Plasma protein binding and Brain homogenate binding: Determination of fraction unbound (f u) in plasma was conducted in vitro via equilibrium dialysis using HTDialysis (HTD) membrane plates. The top half of the plate was filled with 100 uL of Dubelco’s Phosphate Buffered Saline, pH 7.4 (DPBS). Compounds were diluted into plasma from each species (5 µM final concentration), which was aliquoted in triplicate to the ‘bottom half’ of the prepared HTD plate wells. The HTD plate was sealed and incubated for 6 hours at 37 °C. Following incubation, each well (both top and bottom halves) were transferred (20 µL) to the corresponding wells of a 96-shallow-well (V-bottom) plate. The daughter plates were then matrix-matched (DPBS side wells received equal volume of plasma, and plasma side wells received equal volume of DPBS), and extraction solution (120 µL; acetonitrile containing 50 nM carbamazepine as IS) was added to all wells of both daughter plates to precipitate protein and extract test article. The plates were then sealed and centrifuged (3500 rcf) for 10 minutes at ambient temperature. […]
The unbound fraction (f u) was calculated following the equation below, and mean values for each species were calculated from 3 replicates.
A similar approach was used to determine the degree of brain homogenate binding, which employed the same methodology and procedure with the following modifications: 1) a final compound concentration of 1 μM was used, 2) naïve rat brains were homogenized in DPBS (1:3 composition of brain: DPBS, w/w) using a Mini-Bead Beater™ machine in order to obtain brain homogenate, which was then treated in the same manner as the plasma samples in the previously described plasma protein binding assay. Fraction unbound for both plasma and brain samples was determined using Equation 4. […]
The diluted fraction unbound (fu2) in brain was calculated in the same manner by using brain homogenate rather than plasma. Undiluted fraction unbound for the brain was calculated using […]

For another series, the system named is T1, P-gp.
T1 construct: host or cells: MDR1-MDCK cell monolayers
Put plainly: MDCK-MDR1 P-gp efflux and permeability. Format: in vitro ADME. Set-up: efflux ratio at 2 h / Papp at 2 h: dose or concentration left out as unconfirmed. The note with it: for P-gp ER / efflux ratio at 2 h: MDCK-MDR1 efflux ratio; for Papp at 2 h / efflux ratio at 2 h: dog; for Papp at 2 h: MDCK-MDR1; for efflux ratio at 2 h: read-out: P-gp ER. As to the method: In-vitro determination of blood-brain barrier penetration potential
Blood-brain barrier penetration was determined using MDR1-MDCK cell monolayers by Absorption Systems, following their protocol. In short, compounds were incubated […] final […]
concentration on one side of the cell monolayer for 2 hours. Compounds concentration on either side of the monolayer was determined by LC-MS/MS and apparent permeability and efflux ratio

A further series concerns the target T2, human M1 (Homo sapiens, UniProt P11229).
T2 sequence (P11229 1-460): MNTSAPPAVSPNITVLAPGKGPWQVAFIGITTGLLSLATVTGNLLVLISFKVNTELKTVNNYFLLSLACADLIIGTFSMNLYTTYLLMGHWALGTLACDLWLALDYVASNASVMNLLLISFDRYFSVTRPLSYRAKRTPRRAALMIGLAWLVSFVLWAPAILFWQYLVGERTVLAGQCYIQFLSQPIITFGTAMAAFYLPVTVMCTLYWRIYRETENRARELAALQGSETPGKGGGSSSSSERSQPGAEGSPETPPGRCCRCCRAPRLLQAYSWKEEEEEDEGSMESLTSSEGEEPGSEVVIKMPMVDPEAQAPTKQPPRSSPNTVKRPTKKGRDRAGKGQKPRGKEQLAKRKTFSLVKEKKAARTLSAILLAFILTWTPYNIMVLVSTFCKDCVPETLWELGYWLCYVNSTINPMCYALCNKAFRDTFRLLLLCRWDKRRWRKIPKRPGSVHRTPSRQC
Put plainly: Calcium mobilization assay, human M1 (agonist and PAM modes). Format: cell-based. The note with it: for hM1 PAM AChmax (%) / hM1 Agonist AChmax (%): % ACh max. A general note: A change in cytosolic calcium serves as a functional read-out for many receptors and channels.

A short description of series [2]: Plasma protein binding, human. Format: in vitro ADME. The note with it: pH 7.4, read-out: fu,plasma human. As to the method:
Plasma protein binding and Brain homogenate binding: Determination of fraction unbound (f u) in plasma was conducted in vitro via equilibrium dialysis using HTDialysis (HTD) membrane plates. The top half of the plate was filled with 100 uL of Dubelco’s Phosphate Buffered Saline, pH 7.4 (DPBS). Compounds were diluted into plasma from each species (5 µM final concentration), which was aliquoted in triplicate to the ‘bottom half’ of the prepared HTD plate wells. The HTD plate was sealed and incubated for 6 hours at 37 °C. Following incubation, each well (both top and bottom halves) were transferred (20 µL) to the corresponding wells of a 96-shallow-well (V-bottom) plate. The daughter plates were then matrix-matched (DPBS side wells received equal volume of plasma, and plasma side wells received equal volume of DPBS), and extraction solution (120 µL; acetonitrile containing 50 nM carbamazepine as IS) was added to all wells of both daughter plates to precipitate protein and extract test article. The plates were then sealed and centrifuged (3500 rcf) for 10 minutes at ambient temperature. Supernatant (60 µL) from each well of the daughter plates was then transferred to the corresponding wells of new daughter plates (96-shallow-well, V bottom) containing water (Milli-Q, 60 µL/well), and the plates were sealed in preparation for LC-MS/MS analysis (see LC-MS/MS analysis method below).
The unbound fraction (f u) was calculated following the equation below, and mean values for each species were calculated from 3 replicates. […]
Fraction unbound for both plasma and brain samples was determined using Equation 4.
Equation 4 Determination of fraction unbound in plasma.

Setting [3] is: PAM mode, read-out: hM1 PAM EC50.
[4] abbreviates: agonist mode, read-out: hM1 Agonist EC50.
The mark [5] stands for this setting: hM1 PAM EC50, PAM mode, read-out: hM1 PAM pEC50 (converted).
[6] abbreviates: agonist mode, read-out: human M1 agonism EC50.

CYP2C9, sequence (P11712 whole entry): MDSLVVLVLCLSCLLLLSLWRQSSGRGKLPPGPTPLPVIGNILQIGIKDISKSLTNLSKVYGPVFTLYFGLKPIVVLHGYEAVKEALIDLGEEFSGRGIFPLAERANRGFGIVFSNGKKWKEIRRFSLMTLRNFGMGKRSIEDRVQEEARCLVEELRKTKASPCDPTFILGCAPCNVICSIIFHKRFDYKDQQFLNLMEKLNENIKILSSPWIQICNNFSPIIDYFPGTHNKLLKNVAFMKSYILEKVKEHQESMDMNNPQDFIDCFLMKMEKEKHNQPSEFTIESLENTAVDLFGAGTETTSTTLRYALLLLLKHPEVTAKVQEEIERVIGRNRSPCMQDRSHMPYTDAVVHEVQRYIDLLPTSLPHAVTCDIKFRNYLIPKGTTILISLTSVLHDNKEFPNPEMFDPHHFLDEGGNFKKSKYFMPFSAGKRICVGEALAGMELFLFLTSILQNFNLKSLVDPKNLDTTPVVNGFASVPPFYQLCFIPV

Consider `Cn1ccc(-c2ccc(Cc3cc(C(=O)NC4CCOCC4)nc4ccn(C)c34)cc2)n1` [compound 11], for which half-maximal inhibition against CYP2C9 (IC50) required 28.5 µM. Further, in series [1], the fraction unbound at 6 h, 1 µM was 0.038. Further, in the series on P-gp, the “P-gp ER” value stood at 3.5, the Papp (usually a coefficient for how fast a substance crosses the barrier) at 2 h worked out at 128 nm/s and the efflux ratio at 2 h came out at 3.5. For the same compound, the “hM1 PAM AChmax (%)” value at human M1 (PAM mode) is 80%. Besides, the EC50 at human M1 (setting [3]) was 0.228 µM. Besides, at human M1 (agonist mode), the “hM1 Agonist AChmax (%)” value worked out at 24%. The EC50 at human M1 (setting [4]) is greater than 10 µM. Moreover, on human M1 (setting [5]), the EC50 was 0.166 µM. For the same compound, in series [2], the fraction unbound at 6 h, 5 µM was 0.016.

As for `Cn1ccc(-c2ccc(Cc3cc(C(=O)NC4CCOCC4)nc4ccsc34)cc2)n1` [compound 12], the IC50 (as a rule, the point on the concentration scale where inhibition reaches its midpoint) at CYP2C9 was found to be 16.6 µM. In addition, the fraction unbound at 6 h, 1 µM in series [1] was found to be 0.011. Further, the “P-gp ER” value in the series with P-gp is reported as 0.8. In addition, the Papp at 2 h with P-gp is 268 nm/s. The efflux ratio at 2 h with P-gp was found to be 0.8. Moreover, the “hM1 PAM AChmax (%)” value on human M1 (PAM mode) is reported as 73%. Also, the EC50 on human M1 (setting [3]) was 0.149 µM; at human M1 (setting [4]) it was 3.06 µM; on human M1 (setting [6]), 3.1 µM; at human M1 (setting [5]) it was 0.132 µM. For the same compound, at human M1 (agonist mode), the “hM1 Agonist AChmax (%)” value is 38%. Also, the fraction unbound at 6 h, 5 µM in series [2] turned out to be 0.005.

At CYP2C9, `Cn1ccc2nc(C(=O)NC3CCOCC3)cc(Cc3ccc(-c4cc[nH]n4)cc3)c21` [compound 24] gave an IC50 greater than 30 µM. Also, the fraction unbound at 6 h, 1 µM in series [1] was 0.025. Besides, in the series with P-gp, the Papp at 2 h came out at 20 nm/s and the efflux ratio at 2 h is 31.9. In addition, the “hM1 PAM AChmax (%)” value at human M1 (PAM mode) worked out at 73%. The EC50 on human M1 (setting [3]) worked out at 0.144 µM. Moreover, at human M1 (agonist mode), the “hM1 Agonist AChmax (%)” value was found to be 36%. Moreover, the EC50 on human M1 (setting [6]) worked out at 2.1 µM. In addition, the fraction unbound at 6 h, 5 µM in series [2] came out at 0.047.
